Source: US8048825B2, “Haloalkylsulfonanilide derivatives or salt thereof, herbicide comprising the derivatives as active ingredient, and use of the herbicide” (Nihon Nohyaku Co., Ltd., priority 2006, dated 2011)

Experiments:
Assay type in all cases: in vivo
Echinochloa crus-galli = assay: Herbicidal effect on paddy field weeds of post-emergence stage (Post), Test Example 2; settings: one-leaf stage, 1000 g/ha as active ingredient, examined after 21 days
Outline: (§1)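 Post-emergence paddy test: formulated compound added to 5 cm standing water at 1000 g/ha a.i. when weeds reached one-leaf stage in clay loam pots in greenhouse. Growth inhibition rated 21 days later versus untreated control on a 0 (0%) to 5 (100%) scale.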

Scirpus juncoides [1] = assay: as above; settings: one-leaf stage, 1000 g/ha as active ingredient, examined after 21 days
Outline: as §1

Lindernia procumbens [2] = assay: as above; settings: one-leaf stage, 1000 g/ha as active ingredient, examined after 21 days
Outline: as §1

Scirpus juncoides [3] = assay: Herbicidal efficacy on paddy field weeds of pre-emergence stage (Pre), Test Example 1; settings: 1000 g/ha as active ingredient, examined after 21 days
Outline: (§2)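 Pre-emergence paddy test: 1000 g/ha active ingredient, formulated and water-diluted, dropped onto 5 cm floodwater one day after sowing both weeds in clay loam. After 21 days in greenhouse, inhibition relative to untreated control rated on 0 (0%) to 5 (100%) scale.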

Lindernia procumbens [4] = assay: as above; settings: 1000 g/ha as active ingredient, examined after 21 days
Outline: as §2

Row | Compound | Echinochloa crus-galli post (herbicidal effect) (Echinochloa crus-galli) | Scirpus juncoides post (herbicidal effect) (Scirpus juncoides [1]) | Lindernia procumbens post (herbicidal effect) (Lindernia procumbens [2]) | Scirpus juncoides pre (herbicidal effect) (Scirpus juncoides [3]) | Lindernia procumbens pre (herbicidal effect) (Lindernia procumbens [4])
1 | CC(C)COC(=O)N(c1ccccc1CN1CCCOC1=O)S(=O)(=O)C(F)(F)F [Compound 1-6] | 4 (90%-99% herbicidal effect, phytotoxicity) | 4 (90%-99% herbicidal effect, phytotoxicity) | 4 (90%-99% herbicidal effect, phytotoxicity) | 4 (90%-99% herbicidal effect, phytotoxicity) | 4 (90%-99% herbicidal effect, phytotoxicity)
2 | CCOC(=O)N(c1ccccc1CN1CCC(c2c(Cl)cccc2Cl)OC1=O)S(=O)(=O)C(F)(F)F (stereo not drawn) [Compound 1-274] | 4 (90%-99% herbicidal effect, phytotoxicity) | 4 (90%-99% herbicidal effect, phytotoxicity) | 5 (100% herbicidal effect, phytotoxicity) | 4 (90%-99% herbicidal effect, phytotoxicity) | 5 (100% herbicidal effect, phytotoxicity)
3 | CC1(C)COC(=O)N(Cc2ccccc2NS(=O)(=O)C(F)(F)F)C1 [Compound 1-23] | 4 (90%-99% herbicidal effect, phytotoxicity) | 4 (90%-99% herbicidal effect, phytotoxicity) | 4 (90%-99% herbicidal effect, phytotoxicity) | 4 (90%-99% herbicidal effect, phytotoxicity) | 4 (90%-99% herbicidal effect, phytotoxicity)
4 | COC(=O)N(c1ccccc1CN1CCC(C)(c2c(F)cccc2F)OC1=O)S(=O)(=O)C(F)(F)F (racemic) [Compound 1-440] | 4 (90%-99% herbicidal effect, phytotoxicity) | 4 (90%-99% herbicidal effect, phytotoxicity) | 5 (100% herbicidal effect, phytotoxicity) | 4 (90%-99% herbicidal effect, phytotoxicity) | 5 (100% herbicidal effect, phytotoxicity)
5 | CC(C)COC(=O)N(c1ccccc1CN1CC(C)(C)COC1=S)S(=O)(=O)C(F)(F)F [Compound 1-39] | 4 (90%-99% herbicidal effect, phytotoxicity) | 4 (90%-99% herbicidal effect, phytotoxicity) | 4 (90%-99% herbicidal effect, phytotoxicity) | 4 (90%-99% herbicidal effect, phytotoxicity) | 4 (90%-99% herbicidal effect, phytotoxicity)
6 | CCC1(CC(C)C)CCN(Cc2ccccc2NS(=O)(=O)C(F)(F)F)C(=O)O1 (stereo not drawn) [Compound 1-417] | 4 (90%-99% herbicidal effect, phytotoxicity) | 4 (90%-99% herbicidal effect, phytotoxicity) | 5 (100% herbicidal effect, phytotoxicity) | 5 (100% herbicidal effect, phytotoxicity) | 5 (100% herbicidal effect, phytotoxicity)
7 | CCOC(=O)N(c1ccccc1CN1CCC(C)(c2ccccc2C)OC1=O)S(=O)(=O)C(F)(F)F (stereo not drawn) [Compound 1-406] | 5 (100% herbicidal effect, phytotoxicity) | 4 (90%-99% herbicidal effect, phytotoxicity) | 5 (100% herbicidal effect, phytotoxicity) | 5 (100% herbicidal effect, phytotoxicity) | 5 (100% herbicidal effect, phytotoxicity)
8 | COCN(c1ccccc1CN1CCC(C)(C)OC1=O)S(=O)(=O)C(F)(F)F [Compound 1-55] | 4 (90%-99% herbicidal effect, phytotoxicity) | 4 (90%-99% herbicidal effect, phytotoxicity) | 4 (90%-99% herbicidal effect, phytotoxicity) | 4 (90%-99% herbicidal effect, phytotoxicity) | 4 (90%-99% herbicidal effect, phytotoxicity)
9 | CCOCN(c1ccccc1CN1CCC(c2ccccc2C(F)(F)F)OC1=O)S(=O)(=O)C(F)(F)F (stereo not drawn) [Compound 1-303] | 4 (90%-99% herbicidal effect, phytotoxicity) | 4 (90%-99% herbicidal effect, phytotoxicity) | 5 (100% herbicidal effect, phytotoxicity) |  | 5 (100% herbicidal effect, phytotoxicity)
10 | O=S(=O)(Nc1ccccc1CN1CCCCOC1=S)C(F)(F)F [2-12] | 4 (90%-99% herbicidal effect, phytotoxicity) | 4 (90%-99% herbicidal effect, phytotoxicity) |  | 4 (90%-99% herbicidal effect, phytotoxicity) | 4 (90%-99% herbicidal effect, phytotoxicity)
11 | CC(C)COC(=O)N(c1ccccc1CN1CCC(c2ccccc2)(C2CC2)OC1=O)S(=O)(=O)C(F)(F)F (stereo not drawn) [Compound 1-188] | 4 (90%-99% herbicidal effect, phytotoxicity) | 4 (90%-99% herbicidal effect, phytotoxicity) |  | 4 (90%-99% herbicidal effect, phytotoxicity) | 4 (90%-99% herbicidal effect, phytotoxicity)
12 | CC(C)COC(=O)N(c1ccccc1CN1CCC(C)(C(F)(F)F)OC1=O)S(=O)(=O)C(F)(F)F (stereo not drawn) [Compound 1-85] | 4 (90%-99% herbicidal effect, phytotoxicity) | 4 (90%-99% herbicidal effect, phytotoxicity) |  | 4 (90%-99% herbicidal effect, phytotoxicity) | 4 (90%-99% herbicidal effect, phytotoxicity)
13 | CCOCN(c1ccccc1CN1CCC(c2ccccc2C)OC1=O)S(=O)(=O)C(F)(F)F (stereo not drawn) [Compound 1-292] | 4 (90%-99% herbicidal effect, phytotoxicity) | 4 (90%-99% herbicidal effect, phytotoxicity) | 5 (100% herbicidal effect, phytotoxicity) |  | 5 (100% herbicidal effect, phytotoxicity)
14 | CCC1(C(F)(F)F)CCN(Cc2ccccc2N(C(=O)OCC(Cl)(Cl)Cl)S(=O)(=O)C(F)(F)F)C(=O)O1 (stereo not drawn) [Compound 1-416] | 5 (100% herbicidal effect, phytotoxicity) | 4 (90%-99% herbicidal effect, phytotoxicity) |  | 5 (100% herbicidal effect, phytotoxicity) | 5 (100% herbicidal effect, phytotoxicity)
15 | CCOC(=O)N(c1ccccc1CN1CCC(c2ccccc2)OC1=O)S(=O)(=O)C(F)(F)F (stereo not drawn) [Compound 1-241] | 4 (90%-99% herbicidal effect, phytotoxicity) | 4 (90%-99% herbicidal effect, phytotoxicity) | 5 (100% herbicidal effect, phytotoxicity) |  | 5 (100% herbicidal effect, phytotoxicity)
16 | CCOCN(c1ccccc1CN1CCC(CC)(C(F)(F)F)OC1=O)S(=O)(=O)C(F)(F)F (stereo not drawn) [Compound 1-100] | 4 (90%-99% herbicidal effect, phytotoxicity) |  | 4 (90%-99% herbicidal effect, phytotoxicity) | 4 (90%-99% herbicidal effect, phytotoxicity) | 5 (100% herbicidal effect, phytotoxicity)
